Measurements as given in PubChem BioAssay (NCI).
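Following 48 hours of exposure in 96-well plates, responses at five concentrations were used to interpolate endpoints linearly. Here, GI50 denotes the concentration required for 50% inhibition of growth. TGI denotes the concentration required for complete inhibition of growth.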

Test system: SF-295 CNS
Experiment: growth of human tumour cells (NCI), 48 h

Row | Structure (SMILES) | GI50 [µM] | TGI [µM]
1 | COc1cc(/C=C/c2cc(/C=C/c3ccc(O)c(OC)c3)n(C(=O)Nc3ccc(F)c(Cl)c3)n2)ccc1O | 0.544 | 2.6
2 | CCCCCCCC/C=C/CCCCCCCC(=O)OC[C@H]1O[C@@H](n2ccc(N)nc2=O)C(F)(F)[C@@H]1O | 0.0242 | 0.555
3 | NS(=O)(=O)c1ccc(N=Nc2c(O)[nH]c3ccc(-c4cnco4)cc23)cc1 | > 25 | > 25
4 | Clc1ccc(C2=Nn3c(COc4ccccc4Cl)nnc3SC2)c(Cl)c1 | 10.3 | 87
5 | COc1cc2c3c(n(CCCNC(=O)OCC4c5ccccc5-c5ccccc54)c(=O)c2cc1OC)-c1cc2c(cc1/C3=C\CCNC(=O)OCC1c3ccccc3-c3ccccc31)OCO2 | > 23.6 | > 50
6 | N#C/C(=C1C=C(Br)/C(=N\O)C=C\1Cl)c1cccc2ccccc12 | – | 12.3
7 | COc1cc2nc3cc([N+](=O)[O-])ccc3c(NCCCNCCO)c2cc1OC | 0.182 | 0.604
8 | COC(=O)[C@@H](C)CNS(=O)(=O)N(c1cc(C(F)(F)F)cc(C(F)(F)F)c1)C1CCN(Cc2ccc(F)cc2)CC1 | 10.5 | 24.5
9 | C=C1C(=O)O[C@@H]2/C=C(\C)CC/C=C(/COC(C)=O)C[C@@H](OC(C)=O)[C@@H]12 | – | > 100
10 | COC(=O)[C@H](C)NC(=O)NC(=O)NC(=O)CI | 17.4 | 33.1
11 | CCOC(=O)c1c(C)n(Cc2ccc(Cl)cc2Cl)c2c1c(CN(C)C)c(O)c1[nH]cnc12 | 28.1 | 65
12 | CN1C/C=C\CCOc2cccc(c2)-c2ccnc(n2)Nc2cccc(c2)C1 | 0.0616 | 1.1
13 | C[C@@]12CC=C3c4nc(Nc5cccc(O)c5)sc4CC[C@]3(C)[C@H]1CC[C@]1(C)C(=O)CC[C@@H]21 | 2.49 | 7.92
14 | CN1C(=O)c2cccc3cc([N+](=O)[O-])cc(c23)C1=O | – | > 10
15 | Oc1ccccc1C(Sc1nc2ccccc2s1)Sc1nc2ccccc2s1 | – | > 100
16 | COC1=C(C)C(=O)c2c(c(COC(N)=O)c3n2CC2C3N2C)C1=O (stereo not given) | – | 0.0261
17 | COc1ccc(Cn2cc3c(c2-c2ccccc2)CC(C)(C)c2cnoc2-3)cc1 | 0.732 | 11.6
18 | CN1c2ccc(Cl)cc2C(=O)NC1c1ccc([N+](=O)[O-])s1 (stereo not given) | – | 85.7
19 | c1cc(CNC23CC4CC(CC(C4)C2)C3)cc(C[N+](Cc2cccc(CNC34CC5CC(CC(C5)C3)C4)c2)(Cc2cccc(CNC34CC5CC(CC(C5)C3)C4)c2)Cc2cccc(CNC34CC5CC(CC(C5)C3)C4)c2)c1 (stereo not given) | 12.7 | 43.6
20 | Oc1cccnc1CN1CCCCC1 | – | > 100

Test system: UACC-257 melanoma
Experiment: growth of human tumour cells (NCI), 48 h

Row | Structure (SMILES) | GI50 [µM] | TGI [µM]
21 | CN1CCN(CCCOc2ccc3nc(Nc4ccc(Cl)c(C(F)(F)F)c4)ccc3c2)CC1 | 18.8 | 33.4
22 | CC(C)n1nc(-c2cc3cc(O)ccc3[nH]2)c2c(N)ncnc21 | 0.161 | 1.7
23 | CCCCC(O)(c1ccc(Cl)cc1)C(CN1CCOCC1)c1ccc(Cl)cc1 (stereo not given) | 14.3 | 35
24 | NCC1Nc2ccccc2[C@@H](O)C1O (stereo not given in full) | – | > 100
25 | OC[C@H]1CCCC1O (stereo not given in full) | – | > 100
26 | Cc1cccc(N2CCN(C(=S)c3ccc4c(c3)OCO4)CC2)c1 | > 100 | > 100
27 | Cc1cc(C(=O)Nc2ncc(Cc3cccc(C(F)(F)F)c3)s2)c2ccccc2n1 | 1.75 | > 100
28 | O=C(N/N=C/c1ccc(Cl)cc1)c1ccc(C(F)(F)F)nc1Nc1cccc(C(F)(F)F)c1 | 2.43 | 8.99
29 | COc1cc2ncnc(Nc3ccc(C)c(O)c3)c2cc1OC | > 25 | > 25
30 | O=C1OC(C(O)CO)C(=O)C1=O (stereo not given) | > 10000 | > 10000
31 | COC(=O)C1=CNC=C(C(=O)OC)C1C1=CC(=O)C(C)=CC1=O | 16.4 | 31.1
32 | C=C1C(=O)O[C@H]2[C@H]1CC/C(COC(=O)C(=O)c1cn(Cc3ccccc3)c3ccccc13)=C\CC[C@@]1(C)O[C@@H]21 | 2.16 | 5.21
33 | Cc1cc(S(=O)(=O)Nc2nnc(-c3ccccc3)c(-c3ccccc3)n2)c(SCC(N)=O)cc1Cl | 33.1 | 97.6
34 | COc1ccc(/C=C/c2ccnc3ccccc23)c(OC)c1 | – | > 10
35 | Cc1ccc(C(=O)CN(/C=C/C(=O)C(F)(F)F)c2ccc(S(N)(=O)=O)cc2)cc1 | > 100 | > 100
36 | Clc1nc(Cl)c(Cl)c(-c2ccccc2)n1 | – | 44.2
37 | COC(C(O)CO)C(O)C(O)C(=O)NNc1ccccc1 (stereo not given) | – | > 100
38 | NS(=O)(=O)c1ccc(NC2(C(=O)O)CCCC2)cc1 | – | > 100
39 | N=C1C(c2nc3ccccc3s2)=C(O)CN1c1cc(C(F)(F)F)ccc1Cl | 7.65 | 46.1
40 | CC(=O)CSCc1ccccn1 | – | > 100
41 | COc1ccccc1CNCCCN1C(=O)c2ccc3c4c(ccc(c24)C1=O)C(=O)N(CCCOCCCCOCCCN)C3=O | 0.272 | 0.892
42 | CCOC(=O)[C@@H](N)CCC(=O)N[C@@H](CSCc1ccccc1)C(=O)N[C@@H](C(=O)OCC)c1ccccc1 | 15.4 | 29.7

Row | Structure (SMILES) | GI50 [µM] | TGI [µM]
43 | COc1ccc(Nc2c3ccccc3nc3occc23)cc1 | 9.98 | 28.9
44 | COc1cc(/C=C/c2cc(/C=C/c3ccc(O)c(OC)c3)n(C(=O)Nc3ccc(F)c(Cl)c3)n2)ccc1O | 1.18 | 5.32
45 | CCCCCCCC/C=C/CCCCCCCC(=O)OC[C@H]1O[C@@H](n2ccc(N)nc2=O)C(F)(F)[C@@H]1O | 0.039 | > 100
46 | NS(=O)(=O)c1ccc(N=Nc2c(O)[nH]c3ccc(-c4cnco4)cc23)cc1 | > 25 | > 25
47 | Clc1ccc(C2=Nn3c(COc4ccccc4Cl)nnc3SC2)c(Cl)c1 | 20.8 | 60.9
48 | COc1cc2c3c(n(CCCNC(=O)OCC4c5ccccc5-c5ccccc54)c(=O)c2cc1OC)-c1cc2c(cc1/C3=C\CCNC(=O)OCC1c3ccccc3-c3ccccc31)OCO2 | > 50 | > 50
49 | N#C/C(=C1C=C(Br)/C(=N\O)C=C\1Cl)c1cccc2ccccc12 | – | 20.5
50 | COc1cc2nc3cc([N+](=O)[O-])ccc3c(NCCCNCCO)c2cc1OC | 0.342 | 0.951
51 | COC(=O)[C@@H](C)CNS(=O)(=O)N(c1cc(C(F)(F)F)cc(C(F)(F)F)c1)C1CCN(Cc2ccc(F)cc2)CC1 | 16.4 | 30.8
52 | C=C1C(=O)O[C@@H]2/C=C(\C)CC/C=C(/COC(C)=O)C[C@@H](OC(C)=O)[C@@H]12 | – | 32.2
53 | COC(=O)[C@H](C)NC(=O)NC(=O)NC(=O)CI | 15.8 | 29.9
54 | CCOC(=O)c1c(C)n(Cc2ccc(Cl)cc2Cl)c2c1c(CN(C)C)c(O)c1[nH]cnc12 | 20.5 | 39.5
55 | CN1C/C=C\CCOc2cccc(c2)-c2ccnc(n2)Nc2cccc(c2)C1 | 0.0722 | 0.371
56 | C[C@@]12CC=C3c4nc(Nc5cccc(O)c5)sc4CC[C@]3(C)[C@H]1CC[C@]1(C)C(=O)CC[C@@H]21 | 3.69 | > 100
57 | CN1C(=O)c2cccc3cc([N+](=O)[O-])cc(c23)C1=O | – | > 10
58 | Oc1ccccc1C(Sc1nc2ccccc2s1)Sc1nc2ccccc2s1 | – | > 100
59 | COC1=C(C)C(=O)c2c(c(COC(N)=O)c3n2CC2C3N2C)C1=O (stereo not given) | – | 0.0641
60 | COc1ccc(Cn2cc3c(c2-c2ccccc2)CC(C)(C)c2cnoc2-3)cc1 | 9.64 | > 100
61 | CN1c2ccc(Cl)cc2C(=O)NC1c1ccc([N+](=O)[O-])s1 (stereo not given) | – | 29.1
62 | c1cc(CNC23CC4CC(CC(C4)C2)C3)cc(C[N+](Cc2cccc(CNC34CC5CC(CC(C5)C3)C4)c2)(Cc2cccc(CNC34CC5CC(CC(C5)C3)C4)c2)Cc2cccc(CNC34CC5CC(CC(C5)C3)C4)c2)c1 (stereo not given) | 12.9 | 45.3
63 | Oc1cccnc1CN1CCCCC1 | – | > 100
